The record followed here is publication PMC4624765, “C-di-GMP Regulates Motile to Sessile Transition by Modulating MshA Pili Biogenesis and Near-Surface Motility Behavior in Vibrio cholerae” (PLoS Pathogens, 2015).

Assay [1] deals with T1, MshE (Vibrio cholerae, UniProt Q9KUV7). Description: fluorescence thermal shift (SYPRO Orange). Format: binding. The note with it: 25 mM Tris-HCl pH 7.5, 100 mM NaCl, 0.2 mM MgCl2. Also on record: gene VC_0405; full-length, expressed in E. coli BL21, purified on GST column with glutathione elution.
T1 sequence (Q9KUV7 1-575): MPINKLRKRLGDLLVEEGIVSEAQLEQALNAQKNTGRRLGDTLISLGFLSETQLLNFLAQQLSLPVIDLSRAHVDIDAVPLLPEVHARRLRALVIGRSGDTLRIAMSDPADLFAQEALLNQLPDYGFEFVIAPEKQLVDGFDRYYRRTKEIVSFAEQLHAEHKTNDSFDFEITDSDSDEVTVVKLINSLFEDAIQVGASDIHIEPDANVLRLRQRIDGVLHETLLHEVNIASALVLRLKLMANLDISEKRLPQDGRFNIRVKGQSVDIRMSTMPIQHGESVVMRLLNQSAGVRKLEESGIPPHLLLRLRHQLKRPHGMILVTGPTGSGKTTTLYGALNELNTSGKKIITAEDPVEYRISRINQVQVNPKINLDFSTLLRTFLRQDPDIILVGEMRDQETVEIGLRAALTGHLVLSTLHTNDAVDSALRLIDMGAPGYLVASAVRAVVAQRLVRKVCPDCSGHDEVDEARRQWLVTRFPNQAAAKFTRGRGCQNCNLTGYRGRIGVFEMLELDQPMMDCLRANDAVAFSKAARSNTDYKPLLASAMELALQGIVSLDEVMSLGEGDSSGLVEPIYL
The target in another assay is T2, VpsT (Vibrio cholerae, UniProt Q9KKZ8).
T2 construct: gene VC_A0952
Description: biochemical.

The target in another assay is T3, MshE N-terminal domain (Vibrio cholerae, UniProt Q9KUV7).
T3 construct: gene VC_0405; N-terminal domain, residues 1-180, expressed in E. coli BL21
T3 sequence (Q9KUV7 1-180 limits assumed): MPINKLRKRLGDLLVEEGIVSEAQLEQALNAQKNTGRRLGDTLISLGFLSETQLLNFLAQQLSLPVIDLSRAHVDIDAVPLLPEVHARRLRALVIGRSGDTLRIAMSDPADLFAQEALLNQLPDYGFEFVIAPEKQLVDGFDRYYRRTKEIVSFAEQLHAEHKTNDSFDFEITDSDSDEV
As to the kind of experiment: fluorescence thermal shift (SYPRO Orange). The note with it: 25 mM Tris-HCl pH 7.5, 100 mM NaCl, 0.2 mM MgCl2. The class given is binding.

The target in assay [2] is T1, MshE. Description: biochemical. Also on record: gene VC_0405.

On to `Nc1ncnc2c1ncn2[C@@H]1O[C@H](COP(=O)(O)OP(=O)(O)OP(=O)(O)O)[C@@H](O)[C@H]1O` [ATP], for which, at MshE [1], the “Tm with 2 mM ligand” value was determined as 40.15 ±1.02 °C.

Broadly, the Kd is a measure of binding affinity in units of concentration. Read a high Kd as weaker binding. As for `Nc1nc2c(ncn2[C@@H]2O[C@@H]3COP(=O)(O)O[C@H]4[C@@H](O)[C@H](n5cnc6c(=O)[nH]c(N)nc65)O[C@@H]4COP(=O)(O)O[C@H]3[C@H]2O)c(=O)[nH]1` [c-di-GMP], the “Tm with 2 mM ligand” value at MshE [1] stood at 42.77±0.70 °C; at MshE N-terminal domain, 70.18 ±0.55 °C. The Kd at VpsT was 10.1 µM; on MshE [2], 8.77 µM.
